Reference: publication PMC7034070, “Synthesis, anti-inflammatory, cytotoxic, and COX-1/2 inhibitory activities of cyclic imides bearing 3-benzenesulfonamide, oxime, and β-phenylalanine scaffolds: a molecular docking study” (Journal of Enzyme Inhibition and Medicinal Chemistry, 2020)
“And” between values parts separate entries of the source, which are not always exact repeats. Identical values can stand only once.

Assays:
[1] = tested on: carrageenan induced rat paw oedema; experiment: rat carrageenan-induced foot paw oedema model; format: in vivo; conditions: for Mean % increase in paw weight ± SEM / % Inhibition of paw oedema from control group: 2 h after carrageenan; for Mean % increase in paw weight ± SEM: control group 165.6 ± 1.6; for % Inhibition of paw oedema from control group: single dose screen (Table 1); for ED50: from three graded doses (45, 65, 80 mg/kg)
Method: Anti-inflammatory assessment of the newly synthesised compounds was carried out using an in vivo rat carrageenan-induced foot paw oedema model, as reported previously[16]^,[17].

[2] = tested on: mice; experiment: Ulcerogenicity measurement; format: in vivo; conditions: for Average number of ulcers / Mean sum of lengths of elongated ulcer: mice; for Mean sum of lengths of elongated ulcer: ± SEM; for level of ulcerogenic activity (in words): relative to diclofenac and celecoxib
Method: Ulcerogenicity was evaluated according to a previously reported method[6]^a,[17]^,[18]. The number and total length of the ulcers for each animal were measured and their averages were calculated and used as the ulcer indices.

[3] = target: T1, COX-1 (Ovis aries, UniProt P05979); experiment: colorimetric COX (ovine) inhibitor screening assay kit; format: biochemical; conditions: ovine COX-1, mean of two determinations
T1 construct: purchased Cayman Chemicals Inc., Ann Arbour, MI
T1 sequence (P05979 25-600): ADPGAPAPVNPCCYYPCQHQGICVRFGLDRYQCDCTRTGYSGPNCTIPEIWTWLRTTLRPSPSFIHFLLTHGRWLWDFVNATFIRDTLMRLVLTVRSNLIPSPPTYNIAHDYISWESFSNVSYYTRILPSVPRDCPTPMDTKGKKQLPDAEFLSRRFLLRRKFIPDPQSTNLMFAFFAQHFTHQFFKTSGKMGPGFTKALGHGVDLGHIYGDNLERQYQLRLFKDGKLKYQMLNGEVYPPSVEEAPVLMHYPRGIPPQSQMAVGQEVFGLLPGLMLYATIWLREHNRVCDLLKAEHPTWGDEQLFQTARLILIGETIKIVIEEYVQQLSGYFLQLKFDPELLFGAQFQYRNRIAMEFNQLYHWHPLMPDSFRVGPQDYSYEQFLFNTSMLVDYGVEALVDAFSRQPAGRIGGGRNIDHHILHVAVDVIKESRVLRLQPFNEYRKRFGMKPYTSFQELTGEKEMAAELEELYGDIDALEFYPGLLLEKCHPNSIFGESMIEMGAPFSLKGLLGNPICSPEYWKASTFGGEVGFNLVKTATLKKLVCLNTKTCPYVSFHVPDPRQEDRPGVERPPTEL
Text: (§1) To determine the relative ability of the test compounds and reference drugs to inhibit COX-1/COX-2 isozymes, we used the colorimetric COX (ovine) inhibitor screening assay kit (Cayman Chemicals Inc., Ann Arbour, MI), according to the manufacturer’s instructions[3]^,[10]^,[11]^,[20].

[4] = target: T2, COX-2 (Ovis aries, UniProt P79208); experiment: as above; format: biochemical; conditions: for SI, selectivity index (COX-1 IC50/COX-2 IC50): ovine COX-1/COX-2; for IC50: ovine COX-2, mean of two determinations
T2 construct: purchased Cayman Chemicals Inc., Ann Arbour, MI
T2 sequence (P79208 17-603): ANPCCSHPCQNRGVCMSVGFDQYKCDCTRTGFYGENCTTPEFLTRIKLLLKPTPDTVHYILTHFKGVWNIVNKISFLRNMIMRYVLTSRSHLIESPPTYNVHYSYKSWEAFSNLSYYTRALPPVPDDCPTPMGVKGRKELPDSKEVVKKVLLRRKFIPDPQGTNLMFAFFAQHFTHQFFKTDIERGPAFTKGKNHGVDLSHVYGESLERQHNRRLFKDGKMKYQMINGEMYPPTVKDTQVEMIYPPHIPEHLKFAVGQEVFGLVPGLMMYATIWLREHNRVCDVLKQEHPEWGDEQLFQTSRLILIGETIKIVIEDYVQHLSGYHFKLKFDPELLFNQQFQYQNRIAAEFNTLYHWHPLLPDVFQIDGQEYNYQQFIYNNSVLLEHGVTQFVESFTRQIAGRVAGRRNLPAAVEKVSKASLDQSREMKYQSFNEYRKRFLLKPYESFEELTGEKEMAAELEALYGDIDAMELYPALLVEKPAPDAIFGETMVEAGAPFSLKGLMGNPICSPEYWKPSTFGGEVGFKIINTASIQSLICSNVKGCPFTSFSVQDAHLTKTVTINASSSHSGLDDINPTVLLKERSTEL
Text: as §1

| Structure (SMILES) | Mean % increase in paw weight ± SEM [1] | % Inhibition of paw oedema from control group [1] | % Inhibition of paw oedema from control group ([1]; listed as celecoxib) | Percentage inhibition of paw oedema from control group ([1]; dose 45 mg/kg) | Percentage inhibition of paw oedema from control group ([1]; dose 65 mg/kg) | Percentage inhibition of paw oedema from control group ([1]; dose 80 mg/kg) | ED50 [1] | Average number of ulcers [2] | Mean sum of lengths of elongated ulcer [2] | melting point | level of ulcerogenic activity (in words) [2] | IC50 [3] | SI, selectivity index (COX-1 IC50/COX-2 IC50) [4] | IC50 [4] |
| --- | --- | --- | --- | --- | --- | --- | --- | --- | --- | --- | --- | --- | --- | --- |
| Cc1ccc(-c2cc(C(F)(F)F)nn2-c2ccc(S(N)(=O)=O)cc2)cc1 [Celecoxib, 4-[5-(4-methylphenyl)-3-(trifluoromethyl)-1H-pyrazol-1-yl]benzenesulfonamide, reference compound] | 27.3 ± 0.4% | 85.6 ± 0.4% | 85.6% | 69.8% | 85.6% | 93.5% | 34.1 mg/kg | 5 | 5.8 ± 0.77 mm | – | – | – | – | – |
| NS(=O)(=O)c1cccc(N2C(=O)c3cc(Cl)c(Cl)cc3C2=O)c1 [Compound 7, 3-(5,6-Dichloro-1,3-dioxoisoindolin-2-yl)benzenesulfonamide] | 129.7 ± 0.9% | 29.7% and 29.7 ± 0.2% | – | – | – | – | – | – | – | 256 to 258 °C | – | – | – | – |
| NS(=O)(=O)c1cccc(N2C(=O)c3ccc([N+](=O)[O-])cc3C2=O)c1 [Compound 9] | 35.6 ± 0.1% | 80.9% and 80.9 ± 0.9% | – | 69.8% | 80.9% | 90.5% | 37 mg/kg | 4 | 1.7 ± 0.21 mm | – | very low levels of ulcerogenic activity | > 50 µM | >333.3 | 0.15 µM |
| NS(=O)(=O)c1cccc(N2C(=O)c3cccc4cccc(c34)C2=O)c1 [Compound 10, 3-(1,3-Dioxo-1H-benzo[de]isoquinolin-2(3H)-yl)benzenesulfonamide] | 93.7 ± 0.4% | 49.2% and 49.2 ± 0.6% | – | – | – | – | – | – | – | 241 to 243 °C | – | > 50 µM | >14.3 | 3.5 µM |
| CC(=NO)c1ccc(N2C(=O)CCC2=O)cc1 [Compound 11, 1-(4-(1-(Hydroxyimino)ethyl)phenyl)pyrrolidine-2,5-dione] | 45.0 ± 0.3% | 75.6% and 75.6 ± 0.6% | – | – | – | – | – | – | – | 184 to 186 °C | – | > 50 µM | >227.3 | 0.22 µM |
| C/C(=N/O)c1ccc(N2C(=O)C3CC=CCC3C2=O)cc1 (stereo not drawn) [Compound 12] | 37.5 ± 0.5% | 79.7% and 79.7 ± 0.4% | – | 65.3% | 79.7% | 87.4% | 39.2 mg/kg | 5 | 2.4 ± 0.13 mm | – | ulcerogenic level similar to celecoxib and less than that of diclofenac | > 50 µM | >312.5 | 0.16 µM |
| C/C(=N/O)c1ccc(N2C(=O)c3ccccc3C2=O)cc1 [Compound 13] | 36.2 ± 0.2% | 80.4% and 80.4 ± 0.7% | – | 67.9% | 80.4% | 91.1% | 37.5 mg/kg | 5 | 2.1 ± 0.23 mm | – | ulcerogenic level similar to celecoxib and less than that of diclofenac | > 50 µM | >312.5 | 0.16 µM |
| C/C(=N/O)c1ccc(N2C(=O)c3ccc(C)cc3C2=O)cc1 [Compound 14] | 70.8 ± 0.6% | 61.6% and 61.6 ± 0.5% | – | – | – | – | – | – | – | – | – | > 50 µM | >62.5 | 0.8 µM |
| C/C(=N/O)c1ccc(N2C(=O)c3ccc(C(C)(C)C)cc3C2=O)cc1 [Compound 15] | 95.7 ± 0.9% | 48.1% and 48.1 ± 0.2% | – | – | – | – | – | – | – | – | – | > 50 µM | >14.3 | 3.5 µM |
| C/C(=N/O)c1ccc(N2C(=O)c3cc(Cl)c(Cl)cc3C2=O)cc1 [Compound 16] | 115.3 ± 1.2% | 39.6% and 39.6 ± 0.4% | – | – | – | – | – | – | – | – | – | – | – | – |
